For data set [1], the system named is varicella zoster virus (VZV) (strains OKa and YS). Put plainly: microbe, parasite or virus in culture. It is filed as cell-based. The settings on record: for EC50: read-out: EC50/VZV/μM; for antiviral activity with respect to varicella zoster virus (in words): verbal assessment. As to the method: VZV (strains OKa and YS) induced cytopathogenicity in human embryonic lung fibroblast (HEL) cells was measured 7 days post infection. EC50 was defined as the drug concentration (in μM) required to reduce virus-induced cytopathicity by 50%.
The values of EC50 and CC50 were measured as above.

For data set [2], the system named is human embryonic lung fibroblast (HEL) cells. Description: CC50 in tissue culture assay. The class given is cell-based. As to the method:
(§1) Each of the products of Examples 1, 2, 3 and 4 was tested in vitro in tissue culture assays for potent antiviral action with respect to varicella zoster virus (VZV). Acyclovir was included in the test procedure as a control. VZV (strains OKa and YS) induced cytopathogenicity in human embryonic lung fibroblast (HEL) cells was measured 7 days post infection. EC50 was defined as the drug concentration (in μM) required to reduce virus-induced cytopathicity by 50%.
(§2) Each of the products of Examples 7 and 8 was tested in vitro in tissue culture assays for potent antiviral action with respect to varicella zoster virus (VZV). Acyclovir was included in the test procedure as a control. EC50 and CC50 values were measured as described under examples 1 to 6 above. […]

The nature of data set [3]: CC50 in tissue culture assay. It is filed as cell-based, human. The settings on record: human. As to the method: as §1, §2
In the next data set the test system is cytomegalovirus (CMV). Description: CMV induced cytopathogenicity in HEL cells (in vitro tissue culture assay). It is filed as cell-based. The settings on record: for EC50: Table IV, CMV induced cytopathogenicity in HEL cells. As to the method:
The product of Example 8 was additionally tested in vitro in tissue culture assays for potent antiviral action with respect to cytomegalovirus (CMV). CMV induced cytopatho-genicity in human embryonic lung fibroblast (HEL) cells was measured post infection. EC50 and CC50 were defined as above for VZV. The equivalent data for the known CMV active agent dihydroxypropyl guanine (DHPG) is included in Table IV as a control.
For orientation: Protection from cytopathic effect is a common read-out in antiviral testing.

A further data set deals with HSV-1. The settings on record: cited from earlier work.
Another data set concerns HSV-2. The settings on record: cited from earlier work.
A further data set concerns VZV. The settings on record: cited from earlier work.
Another data set has as its system CMV. The settings on record: cited from earlier work.
Setting [4] is: Table I, VZV strains OKa and YS, HEL cells, 7 days post infection, concentration reducing virus-induced cytopathicity by 50%.
[5] abbreviates: Table II, X = O, R chain length series, concentration reducing virus-induced cytopathicity by 50%.
Setting [6] is: Table III, measured as under examples 1 to 6.

“Also recorded” adds a separate entry of the source. Where two headings read alike, the source gives them in different places.

Take `CCCCCCCCCCCCc1cc2cn([C@H]3C[C@H](O)[C@@H](CO)O3)c(=O)nc2[nH]1` [Example 14, 3-(2′-Deoxy-β-D-ribofuranosyl)-6-dodecyl-3,7-dihydro-2H-pyrollo[2,3-d]pyrimidin-2-one]: the EC50 in data set [1] (Table VII) worked out at 3.7 µM. The same molecule yielded a CC50 in data set [2] above 200 µM.
With `Nc1nc2c(ncn2COCCO)c(=O)[nH]1` [Acyclovir, reference compound], the values for the CC50 in data set [3] and in data set [2] (human) were above 100000 nM and above 100 µM, respectively.
Turning to `CCCCCCCCCCc1cc2cn([C@H]3C[C@H](O)[C@@H](CO)O3)c(=O)nc2o1` [Example 2, 3-(2′-Deoxy-β-D-ribofuranosyl)-6-decyl-2,3-dihydrofuro[2,3-d]pyrimidin-2-one], the EC50 in data set [1] (setting [4]) and in data set [1] (setting [5]) was 0.005 µM in each case. Also, the “antiviral activity with respect to varicella zoster virus (in words)” value in data set [1] is on record as “extremely potent antiviral activity”. In data set [2], this molecule registered a CC50 above 50 µM.
With `O=c1nc2oc(CCCCO)cc2cn1[C@H]1C[C@H](O)[C@@H](CO)O1` [Example 10, 3-(2′-Deoxy-β-D-ribofuranosyl)-6-(4-hydroxybutyl)-2,3-dihydrofuro[2,3-d]pyrimidin-2-one], the EC50 in data set [1] (Table V) is 29 µM. Moreover, in data set [1], the “antiviral activity with respect to varicella zoster virus (in words)” value is on record as “low activity”. The CC50 in data set [2] was above 200 µM.
Consider `CCCCCCc1cc2cn([C@H]3C[C@H](O)[C@@H](CO)O3)c(=O)nc2o1` [Example 4, 3-(2′-Deoxy-β-D-ribofuranosyl)-6-hexyl-2,3-dihydrofuro[2,3-d]pyrimidin-2-one], for which the EC50 in data set [1] (setting [4]) and in data set [1] (setting [5]) was 1.3 µM throughout. In data set [2], this molecule displayed a CC50 above 200 µM.
For `CCCCCCc1cc2cn([C@H]3C[C@H](O)[C@@H](CO)O3)c(=O)nc2[nH]1` [Example 12, 3-(2′-Deoxy-β-D-ribofuranosyl)-6-hexyl,3,7-dihydro-2H-pyrrolo[2,3-d]pyrimidin-2-one], the EC50 in data set [1] (Table VII) was above 50 µM.
In the case of `CCCCCCCCc1cc2cn(C3CC(O)C(CO)O3)c(=O)nc2o1` [Example 3, 3-(2′-Deoxy-β-D-ribofuranosyl)-6-octyl-2,3-dihydrofuro[2,3-d]pyrimidin-2-one], the EC50 in data set [1] (Human alphaherpesvirus 3, HEL, 168 h) is 0.003 µM; in data set [1] (Human alphaherpesvirus 3, HEL) it was 0.03 µM. Further, the “antiviral activity with respect to varicella zoster virus (in words)” value in data set [1] is “extremely potent antiviral activity; also recorded: antiviral activity comparable to acyclovir”. This molecule showed a CC50 in data set [3] above 50000 nM.
In data set [2], `Nc1nc2c(ncn2COC(CO)CO)c(=O)[nH]1` [DHPG, dihydroxypropyl guanine, reference compound] had a CC50 above 200 µM. Also, the EC50 with cytomegalovirus (CMV) was 3.1 µM.
As for `CCCCCCCCCCCCc1cc2cn([C@H]3C[C@H](O)[C@@H](CO)O3)c(=O)nc2o1` [Example 1, 3-(2′-Deoxy-β-D-ribofuranosyl)-6-dodecyl-2,3dihydrofuro[2,3-d]pyrimidin-2-one], the EC50 in data set [1] (setting [4]) and in data set [1] (setting [5]) was at most 1.2 µM each time. Moreover, the “antiviral activity with respect to varicella zoster virus (in words)” value in data set [1] was “antiviral activity comparable to acyclovir”. The CC50 in data set [2] (Table I, read-out: CC50/μM) was above 200 µM.
Take `O=c1nc2occc2cn1C1CC(O)C(CO)O1` (stereo not shown): the “activity in in vitro assay against HSV-1” value in the data set on HSV-1 was “inactive”. The “activity in in vitro assay against HSV-2” value in the data set on HSV-2 was “inactive”. Besides, the “activity in in vitro assay against VZV” value with VZV is “inactive”. For the same molecule, the “activity in in vitro assay against CMV” value with CMV is “inactive”.
On to `O=c1nc2oc(CCCO)cc2cn1[C@H]1C[C@H](O)[C@@H](CO)O1` [Example 9, 3-(2′-Deoxy-β-D-ribofuranosyl)-6-(3-hydroxypropyl)-2,3-dihydrofuro[2,3-d]pyrimidin-2-one], for which the EC50 in data set [1] (Table V) was determined as 9.7 µM. The “antiviral activity with respect to varicella zoster virus (in words)” value in data set [1] is listed as “low activity”. In data set [2], this molecule came in with a CC50 above 200 µM.
Take `O=c1nc2oc(CCCCCCCCCO)cc2cn1[C@H]1C[C@H](O)[C@@H](CO)O1` [Example 7, 3-(2′-Deoxy-β-D-ribofuranosyl)-6-(9-hydroxynonyl)-2,3′-dihydrofuro[2,3-d]pyrimidin-2-one]: in data set [1] (setting [6]), the EC50 turned out to be 0.4 µM. In data set [2], this molecule gave a CC50 above 200 µM.
Turning to `O=c1nc2oc(CCCCCCCCCCl)cc2cn1C1CC(O)C(CO)O1` (stereo not shown) [Example 8, 6-(9-chlorononyl)-3-(4-hydroxy-5-(hydroxymethyl)tetrahydro-2-furanyl)-2,3-dihydrofuro[2,3,-d]pyrimidin-2-one], the results for the EC50 (in data set [1] (setting [6]); in the data set with cytomegalovirus (CMV)) were 0.006 µM and 7.2 µM, respectively. Also, the “antiviral activity with respect to CMV (in words)” value with cytomegalovirus (CMV) (verbal assessment) was “comparable to DHPG”.
Turning to `CCCCCc1cc2cn([C@H]3C[C@H](O)[C@@H](CO)O3)c(=O)nc2o1` [Example 5, 3-(2′-Deoxy-β-D-ribofuranosyl)-6-pentyl-2,3-dihydrofuro[2,3-d]pyrimidin-2-one], the EC50 in data set [1] (setting [5]) was 3 µM.
With `CCCCCCCCc1cc2cn([C@H]3C[C@H](O)[C@@H](CO)O3)c(=O)nc2[nH]1` [Example 13, 3-(2′-Deoxy-β-D-ribofuranosyl)-6-octyl,3,7-dihydro-2H-pyrrolo[2,3-d]pyrimidin-2-one], the EC50 in data set [1] (Table VII) worked out at 0.15 µM.
As for `CCCCCCCc1cc2cn([C@H]3C[C@H](O)[C@@H](CO)O3)c(=O)nc2o1` [Example 6, 3-(2′-Deoxy-β-D-ribofuranosyl)-6-heptyl-2,3-dihydrofuro[2,3-d]pyrimidin-2-one], the EC50 in data set [1] (setting [5]) is 0.17 µM.

The values above are taken from US6573247B1, “Anti-viral pyrimidine nucleoside analogues” (University College Cardiff Consultants Limited, priority 1997, dated 2003).
